The source made the active and inactive calls. The rule behind the calls is not given here.
test system: M. tuberculosis H37Rv growth inhibition, glycerol-free medium; test: M tuberculosis H37Rv growth inhibition in absence of glycerol, confirmatory, IC90 (AID 504645); settings: not given;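 note: bacteria grown one week before the viability dye was added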

Row | SMILES | IC50 [µM]
1 | O=C(NCCc1ccc(Cl)cc1)c1ccc(CNc2c(N3CCOCC3)c(=O)c2=O)cc1 | 5.06
2 | CNc1nc(SCc2ccccc2Cl)nc2c1CCCC2 | 1.08
3 | Cc1ccc(NC(=O)COC(=O)CCc2c[nH]c3ccccc23)cc1[N+](=O)[O-] | 1.92
4 | Cc1nc(SCC(=O)NC2CCCC2)[nH]c(=O)c1C | 9.96

same assay, conditions: measured here: 90% growth inhibition

Row | SMILES | IC90 [µM]
5 | O=C(NCCc1ccc(Cl)cc1)c1ccc(CNc2c(N3CCOCC3)c(=O)c2=O)cc1 | 6.95
6 | CNc1nc(SCc2ccccc2Cl)nc2c1CCCC2 | 2.33
7 | Cc1ccc(NC(=O)COC(=O)CCc2c[nH]c3ccccc23)cc1[N+](=O)[O-] | 4.35
8 | Cc1nc(SCC(=O)NC2CCCC2)[nH]c(=O)c1C | 16
9 | O=C(c1ccc(CNc2c(N3CCCC3)c(=O)c2=O)cc1)N1CCN(C2CCCCC2)CC1 | > 25

test system: not listed separately; test: as above; settings: M. tuberculosis H37Rv growth inhibition, glycerol-free medium; at 25 µM (top of the series)

Row | SMILES | inhibition
10 | O=C(CSc1ncccn1)NC1CCCCC1 | 2.15% (inactive)
11 | CCOC(=O)N1CCC(Nc2c(N3CCN(c4cccc(C(F)(F)F)c4)CC3)c(=O)c2=O)CC1 | 3.78% (inactive)
12 | O=C(C1CCC(CNc2c(N3CCCCC3)c(=O)c2=O)CC1)N1CCCCC1 (stereo not drawn) | 1.49% (inactive)
13 | COc1ccc(-c2noc(CSc3nc(N)c(-c4ccccc4)c(=O)[nH]3)n2)cc1OC | 3.69% (inactive)
14 | Oc1ccccc1/C=N/Nc1ccnc(SCc2ccccc2)n1 | 2.52% (inactive)
15 | Cc1c[nH]c(=S)[nH]c1=O | 3.09% (inactive)
16 | Cc1cc(=O)[nH]c(SCC(=O)Nc2ncc(S(=O)(=O)c3ccc([N+](=O)[O-])cc3)s2)n1 | 2.85% (inactive)
17 | CCOC(=O)CSc1nc(C)c(C)c(=O)[nH]1 | -1.83% (inactive)
18 | CC1CCN(C(=O)CSc2nc3ccccc3c(=O)[nH]2)CC1 | -0.18% (inactive)
19 | O=C(CSc1ccccn1)NC1CCCCC1 | 5.28% (inactive)
20 | Nc1cc(=O)[nH]c(SCC(=O)Nc2ccc(Oc3ccccc3)cc2)n1 | 7.34% (inactive)
21 | CCc1c(O)nc(SCC(=O)Nc2ccc(OC)cc2)n(C2CCCCC2)c1=O | 2.43% (inactive)
22 | CN(C(=O)CSc1nc2ccccc2c(=O)[nH]1)C1CCCCC1 | 3.96% (inactive)
23 | Cc1ccc(NC(=O)CSc2nc(N)c(-c3ccccc3)c(=O)[nH]2)cc1Cl | 1.17% (inactive)
24 | C=CCn1c(SCC(=O)Nc2cccc3ccccc23)nc(O)c(CC)c1=O | 6.9% (inactive)
25 | CCOc1ccc(NC(=O)c2ccc(CNc3c(N4CCCC4)c(=O)c3=O)cc2)cc1 | 7.47% (inactive)
26 | CCSc1nc(C)c(C)c(=O)[nH]1 | 3.06% (inactive)

Row | SMILES | inhibition
27 | CCOc1ccc2nc(NC(=O)C(CC)Sc3nc(C)cc(=O)[nH]3)sc2c1 (stereo not drawn) | 4.79% (inactive)
28 | COC(=O)c1ccc(CNc2c(N3CCCC3)c(=O)c2=O)cc1 | -5.38% (inactive)
29 | Cc1[nH]c(=S)[nH]c(=O)c1C | -1.69% (inactive)
30 | Cc1ccc(NC(=O)CSc2nc(N)cc(=O)[nH]2)cc1Cl | 10.7% (inactive)
31 | Cc1nc(SCc2ccccc2Cl)[nH]c(=O)c1C | -3.47% (inactive)
32 | Cc1[nH]c2ccccc2c1C(=O)COC(=O)c1ccc([N+](=O)[O-])s1 | 8.85% (inactive)
33 | COC(=O)C(Nc1nc(SCC(=O)NC2CCCCC2)nc2ccccc12)c1ccccc1 (stereo not drawn) | -2.65% (inactive)
34 | CCCc1cc(=O)[nH]c(SCC(=O)Nc2cc3c(cc2C(C)=O)OCO3)n1 | 9.03% (inactive)
35 | Cc1cccc(N2CCN(C(=O)c3ccc(CNc4c(N5CCC(C)CC5)c(=O)c4=O)cc3)CC2C)c1 (stereo not drawn) | 4.48% (inactive)
36 | CC(NC(=O)CSc1nc2ccccc2c(=O)[nH]1)c1ccccc1 (stereo not drawn) | 1.63% (inactive)
37 | Cc1cc(C)cc(NC(=O)CSc2nc3c(c(=O)[nH]2)CN(Cc2ccc(F)cc2)CC3)c1 | -0.57% (inactive)
38 | CCOC(=O)N1CCC(Nc2c(Nc3cccc(CC)c3)c(=O)c2=O)CC1 | 11.5% (inactive)
39 | CCOc1ccc(NC(=O)CSc2nc(N)c(-c3ccccc3)c(=O)[nH]2)cc1 | 2.14% (inactive)
40 | CCC(Sc1nc(=O)cc(N)n1-c1ccccc1)C(=O)Nc1cc(C)on1 (stereo not drawn) | 3.38% (inactive)
41 | Cc1nc(SCC(=O)N(C)c2ccccc2)[nH]c(=O)c1C | -1.39% (inactive)
42 | CCSc1nc2ccccc2c(=O)[nH]1 | 4.69% (inactive)
43 | Cc1nc(SCC(N)=O)[nH]c(=O)c1C | 2.85% (inactive)
